The structures appear in SMILES notation.

For this assay, the target named is T1, Glycogen phosphorylase, muscle form (Oryctolagus cuniculus, UniProt P00489).
T1 sequence (P00489 whole entry): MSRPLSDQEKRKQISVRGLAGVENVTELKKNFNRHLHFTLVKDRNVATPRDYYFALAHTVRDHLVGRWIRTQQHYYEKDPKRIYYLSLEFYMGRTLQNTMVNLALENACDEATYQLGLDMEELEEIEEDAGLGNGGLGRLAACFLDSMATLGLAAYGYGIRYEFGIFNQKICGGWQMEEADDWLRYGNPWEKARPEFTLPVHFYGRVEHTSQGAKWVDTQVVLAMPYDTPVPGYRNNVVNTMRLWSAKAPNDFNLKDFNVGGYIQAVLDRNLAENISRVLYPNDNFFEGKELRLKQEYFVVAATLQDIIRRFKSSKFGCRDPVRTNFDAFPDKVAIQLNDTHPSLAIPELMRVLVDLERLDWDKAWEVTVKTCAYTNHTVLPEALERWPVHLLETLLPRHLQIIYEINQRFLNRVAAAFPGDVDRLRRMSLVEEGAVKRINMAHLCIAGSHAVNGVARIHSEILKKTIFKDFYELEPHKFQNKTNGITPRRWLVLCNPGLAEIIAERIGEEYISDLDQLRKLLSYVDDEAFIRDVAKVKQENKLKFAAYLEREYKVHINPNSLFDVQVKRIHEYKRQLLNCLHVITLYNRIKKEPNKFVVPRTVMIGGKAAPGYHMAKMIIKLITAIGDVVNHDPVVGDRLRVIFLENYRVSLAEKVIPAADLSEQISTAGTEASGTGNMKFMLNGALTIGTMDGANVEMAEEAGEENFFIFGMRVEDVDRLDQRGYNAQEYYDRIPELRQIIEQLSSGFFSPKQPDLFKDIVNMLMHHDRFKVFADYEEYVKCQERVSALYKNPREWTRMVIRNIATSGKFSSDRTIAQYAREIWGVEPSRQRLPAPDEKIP
Put plainly: Inhibition of rabbit muscle glycogen phosphorylase A assessed as release of phosphate from glucose-1-phosphate after 25 mins by microplate reader based method.
Usually IC50 stands for the concentration needed to halve the response being measured. Take `CC1(C)CC[C@]2(C(=O)O)CC[C@]3(C)C(=CC[C@@H]4[C@@]5(C)C[C@@H](O)[C@H](O)[C@@](C)(CO)[C@@H]5CC[C@]43C)[C@@H]2C1` [ARJUNOLIC ACID]: the IC50 came to 103 µM.
As for `CC1(C)CC[C@]2(C(=O)OCc3ccccc3)CC[C@]3(C)C(=CC[C@@H]4[C@@]5(C)C[C@H](O)[C@H](O)C(C)(C)[C@@H]5CC[C@]43C)[C@@H]2C1` [BENZYL AUGUSTATE], the IC50 came out at 21.7 µM.
Then `COC(=O)[C@]12CC[C@@H](C)[C@H](C)[C@H]1C1=CC[C@@H]3[C@@]4(C)C[C@@H](O)[C@H](O)C(C)(C)[C@@H]4CC[C@@]3(C)[C@]1(C)CC2` [COROSOLIC ACID METHYL ESTER], with 33.7 µM; and `CC(=O)O[C@H]1CC[C@]2(C)[C@H]3CC=C4[C@@H]5[C@@H](C)[C@H](C)CC[C@]5(C(=O)O)CC[C@@]4(C)[C@]3(C)CC[C@H]2C1(C)C` [O-ACETYLURSOLIC ACID], with 131 µM; and `CC1(C)CC[C@]2(C(=O)O)CC[C@]3(C)C(=CC[C@@H]4[C@@]5(C)CC[C@H](OC(=O)CCC(=O)O)C(C)(C)[C@@H]5CC[C@]43C)[C@@H]2C1` [OLEANOLIC ACID 3-O-SUCCINATE], with 34.3 µM.

The values above are taken from ChEMBL document CHEMBL1795338, “Identification of pentacyclic triterpenes derivatives as potent inhibitors against glycogen phosphorylase based on 3D-QSAR studies” (Eur J Med Chem, 2011).
